# Results taken from US20220363705A1, “METHOD FOR MANUFACTURING REVAUDIOSIDE-D-CONTAINING CRYSTALLIZED PRODUCT, AND REVAUDIOSIDE-D-CONTAINING CRYSTALLIZED PRODUCT” (SUNTORY HOLDINGS LIMITED, priority 2019, published 2022).
# Experiment: Saturated solubility in ethanol solvent (excess loaded, stirred 24 hours, 0.45-um filtrate measured with LCMS)
# Type: physicochemical
# Settings: for saturated solubility used in calculation of the degree of supersaturation: 90% by mass of EtOH, 10° C.; for saturated dissolution concentration: 90% ethanol solvent at 10° C., according to FIG. 1
# Experimental: The saturated solubility is herein measured according to the following method. That is, 100 ml of a solvent having a predetermined ethanol concentration (w/w) is placed in a container (having a volume of 100 ml or 200 ml, suitably 200 ml), the liquid temperature is set to 10° C. by a water bath in advance, and then the solvent is stirred at 200 rpm, and a target substance is loaded in an excessive amount (amount until suspension is made). After 24 hours, a filtrate is obtained by a 0.45-um membrane filter, and the amount of the target substance (RebA or RebD) included in the filtrate is measured with LCMS. LCMS here used is suitably LCMS 8050 manufactured by Shimadzu Corporation.
# Specifically, 100 ml of a solvent having a predetermined ethanol concentration (w/w) was placed in a […] glass container (separable round-bottomed flask, Tokyo Rikakikai Co., Ltd.), set to a predetermined temperature by a water bath (PCC-7000, Tokyo Rikakikai Co., Ltd.) in advance, and then stirred (SPZ-100, Tokyo Rikakikai Co., Ltd.) at 200 rpm, and RebA (J-100, Morita Kagaku Kogyo Co., Ltd.) or RebD (Jining Renewal & Joint International, China) was loaded in an excessive amount (amount until suspension was achieved). After 24 hours, a filtrate was obtained by a 0.45-um membrane filter, the amount of RebA or RebD included in the filtrate was measured with LCMS (LCMS 8050 manufactured by Shimadzu Corporation), and the solubility curve was created. The results are illustrated in FIG. 1.
saturated solubility used in calculation of the degree of supersaturation [ppm],saturated dissolution concentration,Compound
8270.5,"8,250 ppm","C=C1C[C@@]23CC[C@H]4[C@@](C)(CCC[C@@]4(C)C(=O)O[C@@H]4O[C@H](CO)[C@@H](O)[C@H](O)[C@H]4O)[C@@H]2CC[C@]1(O[C@@H]1O[C@H](CO)[C@@H](O)[C@H](O[C@@H]2O[C@H](CO)[C@@H](O)[C@H](O)[C@H]2O)[C@H]1O[C@@H]1O[C@H](CO)[C@@H](O)[C@H](O)[C@H]1O)C3 [RebA, rebaudioside A]"
99.33,99.3 ppm,"C=C1C[C@@]23CC[C@H]4[C@@](C)(CCC[C@@]4(C)C(=O)O[C@@H]4O[C@H](CO)[C@@H](O)[C@H](O)[C@H]4O[C@@H]4O[C@H](CO)[C@@H](O)[C@H](O)[C@H]4O)[C@@H]2CC[C@]1(O[C@@H]1O[C@H](CO)[C@@H](O)[C@H](O[C@@H]2O[C@H](CO)[C@@H](O)[C@H](O)[C@H]2O)[C@H]1O[C@@H]1O[C@H](CO)[C@@H](O)[C@H](O)[C@H]1O)C3 [RebD, rebaudioside D]"
